Results published in patent US8147818B2, “Hepatitis C virus inhibitors” (Bristol-Myers Squibb Company, priority 2008, dated 2012).

What follows are compounds tested on HCV 1b-377-neo replicon cells (assay: HCV Replicon assay, HCV 1b-377-neo replicon cells). Settings: Hepatitis C virus, read-out: EC50 against HCV 1b (Activity or Range).
Format: cell-based, HCV 1b genotype
Experimental: An HCV Replicon assay was utilized in the present disclosure, and was prepared, conducted and validated as described in commonly owned PCT/US2006/022197 and in O'Boyle et. al. Antimicrob Agents Chemother. 2005 April; 49(4):1346-53.
HCV 1b-377-neo replicon cells were used to test the currently described compound series as well as cells resistant to compound A containing a Y2065H mutation in NS5A (described in application PCT/US2006/022197). The compounds tested were determined to have more than 10-fold less inhibitory activity on cells containing the mutation than wild-type cells indicating a related mechanism of action between the two compound series. Thus, the compounds of the present disclosure can be effective to inhibit the function of the HCV NS5A protein and are understood to be as effective in combinations as previously described in application PCT/US2006/022197 and commonly owned WO/O4014852. Further, the compounds of the present disclosure can be effective against the HCV 1b genotype. It should also be understood that the compounds of the present disclosure can inhibit multiple genotypes of HCV. […] In one embodiment compounds of the present disclosure are active against the 1a, 1b, 2a, 2b, 3a, 4a, and 5a genotypes.

SMILES	EC50 [nM]
CCN(CC)[C@@H](C(=O)N1CC(F)(F)C[C@H]1c1ncc(-c2ccc(-c3ccc4c(ccc5[nH]c([C@@H]6CCCN6C(=O)[C@@H](c6ccccc6)N(CC)CC)nc54)c3)cc2)[nH]1)c1ccccc1 [Example 22w.a]	0.12
COC(=O)N[C@H](C(=O)N1CCC[C@H]1c1nc2c([nH]1)CCCc1cc(-c3ccc(-c4cnc([C@@H]5CCCN5C(C)=O)[nH]4)cc3)ccc1-2)C(C)C [Example 24]	0.32

Same assay, conditions: Hepatitis C virus, read-out: EC50 against HCV 1b (Activity or Range), range class

SMILES	EC50 [nM]
CCN(CC)[C@@H](C(=O)N1[C@@H]2C[C@@H]2C[C@H]1c1ncc(-c2ccc(-c3ccc4c(ccc5[nH]c([C@@H]6C[C@H]7C[C@H]7N6C(=O)[C@@H](c6ccccc6)N(CC)CC)nc54)c3)cc2F)[nH]1)c1ccccc1 [Example 22v.1a]	0.001 to 0.1
COC(=O)N[C@@H](C(=O)N1[C@@H]2C[C@@H]2C[C@H]1c1ncc(-c2ccc(-c3ccc4c(ccc5[nH]c([C@@H]6C[C@H]7C[C@H]7N6C(=O)[C@H](NC(=O)OC)c6ccccc6)nc54)c3)cc2F)[nH]1)c1ccccc1 [Example 22v.1b]	0.001 to 0.1
CCN(CC)[C@@H](C(=O)N1CCC[C@H]1c1ncc(-c2ccc(-c3ccc4c(ccc5[nH]c([C@@H]6CCCN6C(=O)[C@@H](c6ccccc6)N(CC)CC)nc54)c3)cc2F)[nH]1)c1ccccc1 [Example 22v.a]	0.101 to 0.999
COC(=O)N[C@H](C(=O)N1CCC[C@H]1c1ncc(-c2ccc(-c3ccc4c(ccc5[nH]c([C@@H]6CCCN6C(=O)[C@@H](NC(=O)OC)C(C)C)nc54)c3)cc2F)[nH]1)C(C)C [Example 22v]	0.001 to 0.1
COC(=O)N[C@H](C(=O)N1CCC[C@H]1c1ncc(-c2ccc(-c3ccc4c(ccc5[nH]c([C@@H]6CC(F)(F)CN6C(=O)[C@@H](NC(=O)OC)C(C)C)nc54)c3)cc2)[nH]1)C(C)C [Example 22w.1]	0.001 to 0.1
CCN(CC)[C@@H](C(=O)N1CCC[C@H]1c1ncc(-c2ccc(-c3ccc4c(ccc5[nH]c([C@@H]6CC(F)(F)CN6C(=O)[C@@H](c6ccccc6)N(CC)CC)nc54)c3)cc2)[nH]1)c1ccccc1 [Example 22w.1a]	0.001 to 0.1
COC(=O)N[C@H](C(=O)N1CC(F)(F)C[C@H]1c1ncc(-c2ccc(-c3ccc4c(ccc5[nH]c([C@@H]6CC(F)(F)CN6C(=O)[C@@H](NC(=O)OC)C(C)C)nc54)c3)cc2)[nH]1)C(C)C [Example 22w.2]	0.001 to 0.1
CCN(CC)[C@@H](C(=O)N1CC(F)(F)C[C@H]1c1ncc(-c2ccc(-c3ccc4c(ccc5[nH]c([C@@H]6CC(F)(F)CN6C(=O)[C@@H](c6ccccc6)N(CC)CC)nc54)c3)cc2)[nH]1)c1ccccc1 [Example 22w.2a]	0.001 to 0.1
COC(=O)N[C@H](C(=O)N1CC(F)(F)C[C@H]1c1ncc(-c2ccc(-c3ccc4c(ccc5[nH]c([C@@H]6CCCN6C(=O)[C@@H](NC(=O)OC)C(C)C)nc54)c3)cc2)[nH]1)C(C)C [Example 22w]	0.001 to 0.1
COC(=O)N[C@H](C(=O)N1CCC[C@H]1c1ncc(-c2ccc(-c3ccc4c(c3)CCCCc3[nH]c([C@@H]5CCCN5C(=O)[C@@H](NC(=O)OC)C(C)C)nc3-4)cc2)[nH]1)C(C)C [Example 22x.1]	0.001 to 0.1
CCN(CC)[C@@H](C(=O)N1CCC[C@H]1c1ncc(-c2ccc(-c3ccc4c(c3)CCCCc3[nH]c([C@@H]5CCCN5C(=O)[C@@H](c5ccccc5)N(CC)CC)nc3-4)cc2)[nH]1)c1ccccc1 [Example 22x.1a]	0.001 to 0.1
CCN(CC)[C@@H](C(=O)N1CCC[C@H]1c1nc2c(ccc3cc(-c4ccc5c(ccc6nc([C@@H]7CCCN7C(=O)[C@@H](NC(=O)OC)C(C)C)[nH]c65)c4)ccc32)[nH]1)c1ccccc1 [Example 24.1]	0.001 to 0.1
COC(=O)N[C@H](C(=O)N1CCC[C@H]1c1nc2ccc3cc(-c4ccc5c(ccc6[nH]c([C@@H]7CCCN7C(=O)[C@H](NC(=O)OC)c7ccccc7)nc65)c4)ccc3c2[nH]1)C(C)C [Example 24.1a]	0.001 to 0.1
COC(=O)N[C@H](C(=O)N1CCC[C@H]1c1nc2ccc3cc(-c4ccc5c(ccc6[nH]c([C@@H]7CCCN7C(=O)[C@@H](NC(=O)OC)C7CCOCC7)nc65)c4)ccc3c2[nH]1)C(C)C [Example 24.1b]	0.001 to 0.1
COC(=O)N[C@H](C(=O)N1CCC[C@H]1c1nc2ccc3cc(-c4ccc5c(ccc6[nH]c([C@@H]7CCCN7C(=O)[C@H](O)c7ccccc7)nc65)c4)ccc3c2[nH]1)C(C)C [Example 24.1d]	0.001 to 0.1
CCN(CC)[C@@H](C(=O)N1[C@@H]2C[C@@H]2C[C@H]1c1nc2c(ccc3cc(-c4ccc5c(ccc6nc([C@@H]7C[C@H]8C[C@H]8N7C(=O)[C@@H](NC(=O)OC)C(C)C)[nH]c65)c4)ccc32)[nH]1)c1ccccc1 [Example 24.2]	0.001 to 0.1
COC(=O)N[C@H](C(=O)N1[C@@H]2C[C@@H]2C[C@H]1c1nc2ccc3cc(-c4ccc5c(ccc6[nH]c([C@@H]7C[C@H]8C[C@H]8N7C(=O)[C@H](NC(=O)OC)c7ccccc7)nc65)c4)ccc3c2[nH]1)C(C)C [Example 24.2a]	0.001 to 0.1
COC(=O)N[C@H](C(=O)N1[C@@H]2C[C@@H]2C[C@H]1c1nc2ccc3cc(-c4ccc5c(ccc6[nH]c([C@@H]7C[C@H]8C[C@H]8N7C(=O)[C@@H](NC(=O)OC)C7CCOCC7)nc65)c4)ccc3c2[nH]1)C(C)C [Example 24.2b]	0.001 to 0.1
COC(=O)N[C@H](C(=O)N1[C@@H]2C[C@@H]2C[C@H]1c1nc2ccc3cc(-c4ccc5c(ccc6[nH]c([C@@H]7C[C@H]8C[C@H]8N7C(=O)C(c7ccccc7)N7C8CCC7CC8)nc65)c4)ccc3c2[nH]1)C(C)C (some centres unmarked) [Example 24.2d]	0.001 to 0.1
COC(=O)N[C@H](C(=O)N1CCC[C@H]1c1nc2c([nH]1)CCCc1cc(-c3ccc(-c4cnc([C@@H]5CCCN5C(=O)CN(C)C)[nH]4)cc3)ccc1-2)C(C)C [Example 24.a]	0.001 to 0.1
COC(=O)N[C@@H](C)C(=O)N1CCC[C@H]1c1ncc(-c2ccc(-c3ccc4c(c3)CCCc3[nH]c([C@@H]5CCCN5C(=O)[C@@H](NC(=O)OC)C(C)C)nc3-4)cc2)[nH]1 [Example 24.b]	0.001 to 0.1
